One may read the inhibition as the share of the control response that was lost under treatment. Higher therefore signals a response far below the control.

Results on 22 molecules are retold here after patent US10501473B2, “Fused heterocyclic ring compounds and method of treating retinal disease using same” (THE INDUSTRY & ACADEMIC COOPERATION IN CHUNGNAM NATIONAL …, priority 2014, dated 2019).

Some results are limits rather than exact numbers.

For experiment [1], the system named is RGC-5 (rat ganglion cell-5). The experiment in a line: Retinal neuron protection under necroptosis inducing (TCZ; TNFα+cycloheximide+zVAD) condition, LDH assay. The experiment is classed as cell-based. Conditions: RGC-5, TCZ 15 hours, compound 20 μM, DMSO control = 100%. The protocol: The following experiment was performed to evaluate the retinal neuron protection effect of the compounds of the invention under necroptosis inducing condition.
The retinal ganglion cell line RGC-5 (rat ganglion cell-5) was cultured in DMEM (Dulbecco's modified Eagle's medium) supplemented with 10% FBS (fetal bovine serum) and 1% penicillin/streptomycin. The cells were distributed in a 96-well plate at the density of 8×10^3 cells/well, followed by culture in a 37° C., CO2 incubator for 12 hours. The medium supplemented with TNFα (10 ng/ml), cycloheximide (10 μg/ml), and zVAD (10 μM) (TCZ) was treated with DMSO (0.1%) alone (control) or with the compounds of the invention (20 μM), followed by additional culture in a 37° C., CO2 incubator for 15 hours to induce cell death.
The level of cell death was measured by LDH (lactate dehydrogenase, Roche) assay. The level of the control LDH under TCZ condition was regarded as 100%, and the level of LDH in the cell group cultured in normal medium (10% FBS, DMEM) for the same time was used for the measurement of the relative rate of cell death. The compounds of examples of the invention were treated to wells, each compound for three wells, and then each experiment was performed in triplicate.

Experiment [2] concerns RGC-5 (rat ganglion cell). Briefly: Retinal nerve protection under oxygen-glucose deprivation (OGD), LDH assay. The experiment is classed as cell-based. The following applies: RGC-5, OGD 15 hours, compound 20 μM, DMSO control = 100%. The protocol: The following experiment was performed to evaluate the protective effect of the compounds of examples of the invention on the retinal nerve under oxygen-glucose deprivation condition.
The retinal ganglion cell line RGC-5 (rat ganglion cell) was cultured in DMEM (Dulbecco's modified Eagle's medium) supplemented with 10% FBS (fetal bovine serum) and 1% penicillin/streptomycin. The cells were distributed in a 96-well plate at the density of 8×10^3 cells/well, followed by culture in a 37° C., CO2 incubator for 12 hours. The cells were washed with PBS once and the medium was replaced with glucose free DMEM. The cells were treated with either DMSO (0.1%) alone (control) or with the compounds of examples (20 μM) shown in Table 3, followed by culture in an anaerobic incubator (10% H2, 5% CO2, 85% N2, 37° C., chamber (ThermoForma, USA)) for 15 hours to induce cell death.
The level of cell death was measured by LDH (lactate dehydrogenase, Roche) assay. The LDH assay is a method for measuring the activity of LDH released from the damaged cells into the culture medium. NAD^+ was reduced to NADH and H^+ by LDH, and the bond of tetrazolium salt INT ring was cleaved by diaphorase to form formazan. Absorbance of the formazan was measured at 490 nm by using Victor 3 (PerkinElmer). The absorbance reflects the amount of dead cells.
The level of the control LDH under oxygen-glucose deprivation condition was regarded as 100%, and the level of LDH in the cell group cultured in normal medium (10% FBS, DMEM) for the same time was regarded as 0%. Based on that, the levels of LDH of the cell groups treated with the compounds of the invention under oxygen-glucose deprivation condition were converted into the relative ratio of cell death. The compounds of examples of the invention were treated to wells, each compound for three wells, and then each experiment was performed in triplicate.

The target of experiment [3] is RIPK1 (receptor-interacting serine/threonine-protein kinase 1) (Homo sapiens (Human), UniProt Q13546). Briefly: RIPK1 inhibitory activity, autophosphorylation of immuno-precipitated RIPK1 with [32P]γ-ATP. Conditions: for activity at 100 µM: compound 100 μM, remaining RIPK1 phosphorylation; for inhibition at 100 µM: Table 2, 100 μM. In kind it is biochemical. On the procedure:
The following experiment was performed to evaluate RIPK1 (receptor-interacting serine/threonine-protein kinase 1) inhibitory activity of the compounds of examples of the invention.
RIPK1 enzyme immuno-precipitated in HEK293 (Human Embryonic Kidney 293) cell lysate was used as kinase. The experiment was performed according to the method described in Cell. 12; 137(6):1112-23(2009). RIPK1 protein was over-expressed in HEK293 cell line, to which lysis buffer (50 mM Tris-Cl [pH 8.0], 150 mM NaCl, 1 mM EDTA, 1% NP-40, 0.4 mM phenylmethylsulfonyl fluoride (PMSF)) was added for cell lysis. Centrifugation was performed at 13,000 rpm for 10 minutes to separate the supernatant. RIPK1 monoclonal antibody (610459, BD Bioscience) and A/G agarose beads (sc-2003, Santa Cruz Biotechnology) were added thereto, followed by immuno-precipitation in a 4° C. rotator for 12 hours.
The immune complex was washed with lysis buffer twice and then washed with kinase assay buffer (20 mM HEPES [pH7.6], 2 mM DTT, 1 mM NaF, 1 mM Na3Vo4, 20 mM β-glycerophosphate, 20 mM PNPP, 20 mM MgCl2, 20 mM MnCl2, 1 mM Benzamidie, and 1 mM EDTA) lastly. Kinase assay buffer and the compound were added to the RIPK1 immuno-precipitate, followed by reaction in a 24° C. constant-temperature water bath for 15 minutes. Additional reaction was induced for 30 minutes at 30° C. after 100 μM of ATP and 10 μCi[^32P] γ-ATP were added thereto. The reaction mixture was washed with kinase assay buffer once, to which protein loading buffer was added, followed by heating at 100° C. for 3 minutes. The reaction mixture was then loaded on 8% SDS-PAGE gel. Radioactive image of the phosphorylated RIPK1 was detected with FLA-7000 (GE healthcare). The image Quant TL program was used for the quantification.

Sequence of RIPK1 (receptor-interacting serine/threonine-protein kinase 1) (Q13546 whole entry, species assumed): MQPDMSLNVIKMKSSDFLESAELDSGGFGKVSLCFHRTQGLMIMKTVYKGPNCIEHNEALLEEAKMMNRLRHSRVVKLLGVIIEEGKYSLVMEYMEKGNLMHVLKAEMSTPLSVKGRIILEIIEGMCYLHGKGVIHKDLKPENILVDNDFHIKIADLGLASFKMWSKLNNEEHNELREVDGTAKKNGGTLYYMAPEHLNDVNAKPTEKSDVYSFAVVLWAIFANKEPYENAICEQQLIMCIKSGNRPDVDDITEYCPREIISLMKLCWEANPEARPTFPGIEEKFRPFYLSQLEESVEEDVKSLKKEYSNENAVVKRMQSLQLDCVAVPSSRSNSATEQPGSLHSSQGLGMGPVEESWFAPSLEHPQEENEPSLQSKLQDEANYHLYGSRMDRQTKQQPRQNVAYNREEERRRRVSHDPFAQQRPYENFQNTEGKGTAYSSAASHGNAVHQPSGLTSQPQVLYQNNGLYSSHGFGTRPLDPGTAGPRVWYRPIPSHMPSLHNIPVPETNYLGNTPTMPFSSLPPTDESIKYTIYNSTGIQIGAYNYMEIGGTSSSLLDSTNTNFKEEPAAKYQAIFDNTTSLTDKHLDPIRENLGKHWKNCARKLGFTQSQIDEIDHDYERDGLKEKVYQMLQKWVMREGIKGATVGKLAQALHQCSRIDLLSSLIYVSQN

Consider `Fc1ccc(-c2cccc3sc(CN4CCOCC4)cc23)cc1` [Example 7, 4-((4-(4-fluorophenyl)benzo[b]thiophene-2-yl)methyl)morpholine], for which the “Death of retinal nerve cell (%)” value in experiment [1] is 63.2 ± 3.9%; in experiment [2], 90.0 ± 3.3%. In experiment [3], this molecule registered an activity at 100 µM of 87.1 ± 17.7%.

As to `O=C(O)C1COCCN1C(=O)c1cc2c(-c3ccc(F)cc3)cccc2s1` (stereo not shown) [Example 8, 4-(4-(4-fluorophenyl)benzo[b]thiophene-2-carbonyl)morpholine-3-carboxylic acid], the “Death of retinal nerve cell (%)” value in experiment [2] is on record as 52.3 ± 11.1%. In experiment [3], this molecule showed an activity at 100 µM of 88.5 ± 16.3%.

For the molecule `CSc1ccc(-c2cccc3sc(C(=O)N4CCOCC4)cc23)cc1` [Example 50, (4-(4-(methylthio)phenyl)benzo[b]thiophene-2-yl)(morpholino)methanone], the “Death of retinal nerve cell (%)” value in experiment [2] was 57.2 ± 8.1%. In experiment [3], this molecule displayed an inhibition at 100 µM not below 50% and an activity at 100 µM of 47.5 ± 2.1%.

Take `O=C(c1cc2c(-c3ccc(O)cc3)cccc2s1)N1CCOCC1` [Example 44, (4-(4-hydroxyphenyl)benzo[b]thiophene-2-yl)(morpholino)methanone]: the “Death of retinal nerve cell (%)” value in experiment [2] is on record as 81.1 ± 6.5%. In addition, in experiment [3], the inhibition at 100 µM is not below 50% and the activity at 100 µM came to 21 ± 17%.

As to `Cc1ccc(-c2cccc3sc(C(=O)N4CCOCC4)cc23)cc1` [Example 32, morpholino(4-p-tolylbenzo[b]thiophene-2-yl)methanone], in experiment [2], the “Death of retinal nerve cell (%)” value was 64.6 ± 7.4%. The molecule also gave an activity at 100 µM in experiment [3] of 6.5 ± 4.9%.

With `O=C(c1cc2c(Nc3ccc(F)cc3F)cccc2s1)N1CCOCC1` [Example 58, (4-(2,4-difluorophenylamino)benzo[b]thiophene-2-yl)(morpholino)methanone], the “Death of retinal nerve cell (%)” value in experiment [2] worked out at 89.4 ± 6.4%. Further, the activity at 100 µM in experiment [3] is 78.5 ± 30.4%.

For the molecule `O=C(c1cc2c(Cc3cccc(F)c3)cccc2s1)N1CCOCC1` [Example 56, (4-(3-fluorobenzyl)benzo[b]thiophene-2-yl)(morpholino)methanone], the “Death of retinal nerve cell (%)” value in experiment [2] is given as 81.0 ± 16.1%. In experiment [3], the activity at 100 µM was determined as 54.5 ± 37.5%.

In the case of `O=C(c1cc2c(-c3ccc(Br)cc3)cccc2s1)N1CCOCC1` [Example 54, (4-(4-bromophenyl)benzo[b]thiophene-2-yl)(morpholino)methanone], in experiment [2], the “Death of retinal nerve cell (%)” value was determined as 74.3 ± 5.1%. Also, the activity at 100 µM in experiment [3] came to 54.5 ± 37.5%.

With `O=C(c1cc2c(Br)cncc2s1)N1CCOCC1` [Example 3, (4-bromothieno[2,3-c]pyridine-2-yl)(morpholino)methanone], the “Death of retinal nerve cell (%)” value in experiment [1] amounted to 79.6 ± 3.2%. For the same molecule, the activity at 100 µM in experiment [3] was 52 ± 2.8%.

On to `O=C(c1cc2c(Cc3ccc(F)cc3)cccc2s1)N1CCOCC1` [Example 67, (4-(4-fluorobenzyl)benzo[b]thiophene-2-yl)(morpholino)methanone], for which the “Death of retinal nerve cell (%)” value in experiment [2] was found to be 59.3 ± 14.9%. Besides, in experiment [3], the inhibition at 100 µM is not below 50% and the activity at 100 µM stood at 49.5 ± 3.5%.

As for `COS(=O)c1ccc(-c2cccc3sc(C(=O)N4CCOCC4)cc23)cc1` (stereo not shown) [Example 64, methyl 4-(2-(morpholine-4-carbonyl)benzo[b]thiophene-4-yl)benzene sulfinate], in experiment [2], the “Death of retinal nerve cell (%)” value is recorded as 63.0 ± 17.8%. The same molecule had an activity at 100 µM in experiment [3] of 83.6 ± 12.7%.

Regarding `O=C(c1cc2c(-c3ccc(F)cc3)ccc(Cl)c2s1)N1CCOCC1` [Example 53, (7-chloro-4-(4-fluorophenyl)benzo[b]thiophene-2-yl)(morpholino)methanone], the “Death of retinal nerve cell (%)” value in experiment [2] worked out at 59.9 ± 9.7%. This molecule also gave an activity at 100 µM in experiment [3] of 70 ± 4.2%.

For `O=C(c1cc2c(S(=O)(=O)Cc3ccc(F)cc3)cccc2s1)N1CCOCC1` [Example 62, (4-(4-fluorobenzylsulfonyl)benzo[b]thiophene-2-yl)(morpholino)methanone], the “Death of retinal nerve cell (%)” value in experiment [2] is given as 59.3 ± 16.3%. Moreover, the activity at 100 µM in experiment [3] stood at 82.5 ± 5%.

`O=C(c1cc2c(-c3ccc4[nH]ccc4c3)cccc2s1)N1CCOCC1` [Example 9, (4-(1H-indole-5-yl)benzo[b]thiophene-2-yl)(morpholino)methanone]: the “Death of retinal nerve cell (%)” value in experiment [2] turned out to be 64.6 ± 9.5%. In addition, in experiment [3], the activity at 100 µM was found to be 76 ± 33.9%.

For `O=C(c1cc2c(-c3cccc(-c4ccccc4)c3)cccc2s1)N1CCOCC1` [Example 41, (4-(biphenyl-3-yl)benzo[b]thiophene-2-yl)(morpholino)methanone], in experiment [2], the “Death of retinal nerve cell (%)” value stood at 58.3 ± 6.5%. In addition, the activity at 100 µM in experiment [3] was 84.7 ± 6.4%.

For the molecule `Cl.NC1CCN(C(=O)c2cc3c(-c4ccc(F)cc4)cccc3s2)CC1` [Example 37, (4-aminopiperidine-1-yl) (4-(4-fluorophenyl)benzo[b]thiophene-2-yl)methanone hydrochloride], in experiment [2], the “Death of retinal nerve cell (%)” value was determined as 87.0 ± 13.2%. In experiment [3], this molecule showed an inhibition at 100 µM not below 50% and an activity at 100 µM of 25.5 ± 14.8%.

`O=C(c1cc2c(-c3ccc(-c4ccccc4)cc3)cccc2s1)N1CCOCC1` [Example 31, (4-(biphenyl-4-yl)benzo[b]thiophene-2-yl)(morpholino)methanone]: the “Death of retinal nerve cell (%)” value in experiment [2] was determined as 81.2 ± 8.3%. In experiment [3], this molecule registered an activity at 100 µM of 85.2 ± 3.5%.

Take `O=C(c1cc2c(Br)cnc(Cl)c2s1)N1CCOCC1` [Example 1, (4-bromo-7-chlorothieno[2,3-c]pyridine-2-yl)(morpholino)methanone]: the “Death of retinal nerve cell (%)” value in experiment [1] turned out to be 79.3 ± 3.2%. Besides, the activity at 100 µM in experiment [3] turned out to be 52.5 ± 7.8%.

Consider `COc1ccc(-c2cccc3sc(C(=O)N4CCOCC4)cc23)cc1` [Example 34, (4-(4-methoxyphenyl)benzo[b]thiophene-2-yl)(morpholino)methanone], for which the “Death of retinal nerve cell (%)” value in experiment [2] was determined as 55.4 ± 18.1%. Further, the activity at 100 µM in experiment [3] stood at 16.5 ± 7.8%.

Turning to `O=C(c1cc2c(-c3ccc(F)cc3)cccc2s1)N1CCOC1` [Example 46, (4-(4-fluorophenyl)benzo[b]thiophene-2-yl) (oxazolidine-3-yl)methanone], the “Death of retinal nerve cell (%)” value in experiment [2] came to 55.4 ± 12.8%. The molecule also had an activity at 100 µM in experiment [3] of 11 ± 5.7%.

Regarding `Cc1cc(C)c2cc(C(=O)N3CCOCC3)sc2c1` [Example 17, (4,6-dimethylbenzo[b]thiophene-2-yl)(morpholino)methanone], in experiment [2], the “Death of retinal nerve cell (%)” value came to 38.5 ± 5.5%. The activity at 100 µM in experiment [3] was 62.5 ± 16.8%.

Regarding `O=C(O)c1ccc(-c2cccc3sc(C(=O)N4CCOCC4)cc23)cc1` [Example 33, 4-(2-(morpholine-4-carbonyl)benzo[b]thiophene-4-yl)benzoic acid], in experiment [2], the “Death of retinal nerve cell (%)” value turned out to be 51.5 ± 7.0%. In experiment [3], this molecule yielded an activity at 100 µM of 90 ± 2.8%.
